Our source for the IC50 values is patent US10202371B2, “Oxazolidin-2-one-pyrimidine derivatives and the use thereof as phosphatidylinositol-3-kinase inhibitors” (Novartis AG, priority 2012, dated 2019).

The subject of one assay is SCC12B2 cells. The assay can be described thus: BrdU cell proliferation assay SCC12B2. Type of assay: cell-based. The following applies: Homo sapiens, BrdU incorporation. The text has this: The SCL-1 and SCC12B2 are human cutaneous squamous cell carcinoma (SCC) cell lines derived from naturally occurring, poorly differentiated SCCs. The SCL-1 cell line was originally established in the lab of N. Fusenig at the Cancer Research Center in Heidelberg, and its growth characteristics in vitro in comparison to normal keratinocytes were described previously (Neely et al 1991). The SCC12B2 cell line was established as described previously (Rheinwald & Beckett 1981) from the facial skin of a transplant patient who received immunosuppressive therapy for 7 years. The human SCC cell line Detroit562 was obtained from American Tissue Culture Collection (ATCC). Detroit562 is referred to as Head & Neck squamous cell carcinomas (HNSCC) and was derived from a pharyngeal SCC tumor. […]
Cells of SCC or keratinocyte lines (Detroit562, SCC12B2, SCL1, HaCaT) were used for the proliferation assays when they had reached about 80% to 90% confluency. Cells were then harvested after trypsin-mediated dislodgement from culture flasks, washed in culture medium containing 10% FCS, counted in a hemocytometer and diluted complete culture medium with 5% FCS to obtain a cell density of 5×10^4 cells/ml. […] The cell proliferation was determined on the basis of incorporation of bromodesoxy-uridin (BrdU) into cellular DNA using the chemiluminescent BrdU Cell Proliferation ELISA (Roche article #11 669 915 001). […]
For orientation: Dividing cells build labelled thymidine or BrdU into new DNA.

In assay [1] the test system is HaCaT keratinocyte cell line. Briefly: BrdU cell proliferation assay HaCaT keratinocytes. Type of assay: cell-based. The following applies: Homo sapiens, BrdU incorporation. As for the experimental part: Cells of SCC or keratinocyte lines (Detroit562, SCC12B2, SCL1, HaCaT) were used for the proliferation assays when they had reached about 80% to 90% confluency. Cells were then harvested after trypsin-mediated dislodgement from culture flasks, washed in culture medium containing 10% FCS, counted in a hemocytometer and diluted complete culture medium with 5% FCS to obtain a cell density of 5×10^4 cells/ml. 100 μl of this cell suspension (e.g. 5000 cells) were transferred into each well of a 96-well white walled tissue culture plate (Corning-Costar article #3917). Cells were then allowed to settle by placing them in the CO2 incubator for 45 to 60 minutes. Subsequently, a volume of 100 μl of culture medium containing twice the desired final concentration of the test compound was added to each well of quadruplicate wells. […] The cell proliferation was determined on the basis of incorporation of bromodesoxy-uridin (BrdU) into cellular DNA using the chemiluminescent BrdU Cell Proliferation ELISA (Roche article #11 669 915 001). […] Incorporation of BrdU into the DNA was detected by BrdU-specific antibodies and quantified on the basis of an antibody-coupled luciferase mediated signal generation. The luminescence emission was measured in a Victor light 1420 Luminescence counter, (Perkin Elmer) and expressed as relative luminescence units (e.g. data points given as RLU/s) per second. […]

Each structure is given as a SMILES string. Where two headings read alike, the source gives them in different places.

For orientation: IC50 means the concentration needed to halve the response being measured. Turning to `C[C@H]1[C@H](c2nccs2)OC(=O)N1c1cc(-c2cnc(N)nc2C(F)(F)F)nc(N2CCOCC2)n1` [Example 1, (4S,5R)-3-(2′-Amino-2-morpholin-4-yl-4′-trifluoromethyl-[4,5′]bipyrimidinyl-6-yl)-4-methyl-5-thiazol-2-yl-oxazolidin-2-one], the IC50 amounted to 1290 nM in the assay on SCC12B2 cells (measurement #1, read-out: anti-proliferative IC50 SCC12B2 measurement #1); 703 nM in the assay on SCC12B2 cells (measurement #2, read-out: anti-proliferative IC50 SCC12B2 measurement #2); 282 nM in assay [1] (measurement #1, read-out: anti-proliferative IC50 HaCaT measurement #1); 298 nM in assay [1] (measurement #2, read-out: anti-proliferative IC50 HaCaT measurement #2).
